Measured values from patent US7723070B2, “Overexpression of aminoacyl-tRNA synthetases for efficient production of engineered proteins containing amino acid analogues” (California Institute of Technology, priority 2000, dated 2010).

Legend:
[1] = tested on: E. coli cells; settings: antagonist for methionine; cited from earlier work
[2] = tested on: B834(DE3)/pQE15/pREP4; assay: Translational activity: mDHFR synthesis in control host; assay type: cell-based, E. coli
Text: Plasmid DNA from all B834(DE3)/pQE15-MRS/pREP4 cultures used for protein expression experiments was sequenced to confirm that it encoded wild-type MetRS. […] The expression plasmid also encodes an N-terminal hexahistidine sequence for mDHFR which permits purification of the target protein by immobilized metal chelate affinity chromatography (The Qiagen Expressionist, 1992, p. 45). Furthermore, mDHFR contains 8 methionine residues which can be replaced by methionine analogues. A control bacterial host, which produces only mDHFR and normal cellular levels of MetRS, was prepared by transforming B834(DE3) with pREP4 and pQE15.
Methionine analogues were synthesized via alkylation of diethylacetamidomalonate, as previously described (As described in Example I, infra; J. C. M. van Hest, D. A. Tirrell, FEBS Lett. 1998, 428, 68-70). […]
Cells were washed three times with M9 salts and resuspended to an optical density of 0.90 in M9 test media containing 19 amino acids plus 1) neither methionine nor analogue (negative control); 2) methionine (60 mg/liter, positive control); or 3) an analogue of interest (60 mg/liter). […] Expression of mDHFR was induced by addition of 0.4 mM isopropyl β-D-thiogalactopyranoside (IPTG), and protein synthesis was monitored after 4.5 hours.

[3] = molecular target: T1, methionyl tRNA synthetase (MetRS) (Escherichia coli, UniProt P00959); settings: cited from earlier work
T1 sequence (P00959 1-548 limits assumed): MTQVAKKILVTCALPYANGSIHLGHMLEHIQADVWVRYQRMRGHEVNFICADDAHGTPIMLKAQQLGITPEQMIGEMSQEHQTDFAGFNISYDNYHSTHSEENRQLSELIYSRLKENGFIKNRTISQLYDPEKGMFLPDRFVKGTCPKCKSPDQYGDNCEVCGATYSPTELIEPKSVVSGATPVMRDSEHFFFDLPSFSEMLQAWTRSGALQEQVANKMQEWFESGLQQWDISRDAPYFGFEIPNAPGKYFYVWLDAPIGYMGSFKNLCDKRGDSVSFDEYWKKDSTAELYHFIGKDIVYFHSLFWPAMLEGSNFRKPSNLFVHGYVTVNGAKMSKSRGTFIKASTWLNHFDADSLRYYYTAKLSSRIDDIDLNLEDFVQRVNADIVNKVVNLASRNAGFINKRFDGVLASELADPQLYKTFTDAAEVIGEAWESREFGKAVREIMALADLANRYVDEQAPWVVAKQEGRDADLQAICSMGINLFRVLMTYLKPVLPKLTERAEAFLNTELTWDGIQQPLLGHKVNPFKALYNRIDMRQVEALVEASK

SMILES: C/C=C\CC(N)C(=O)O (racemic) [Analogue 4, cis-2-amino-4-hexenoic acid]
- effect on growth of E. coli cells [1]: inhibiting the growth

SMILES: C/C=C/CC(N)C(=O)O (racemic) [Analogue 5, trans-2-amino-4-hexenoic acid]
- mDHFR expression (SDS-PAGE) ([2]; 60 mg/L): not detected

SMILES: CSCC[C@H](N)C(=O)O [Analogue 1, L-methionine, reference compound]
- Protein yields ([2]; supplemented cultures): approximately 35 mg/liter
- kcat, literature value [3]: 13.5 s⁻¹
- Km ([3]; read-out: Km, previously reported, literature value): 24 ± 2 µM
